These are literature values, as cited in paper PMC3356383, “Efficacious Intermittent Dosing of a Novel JAK2 Inhibitor in Mouse Models of Polycythemia Vera” (PLoS ONE, 2012).

SMILES strings stand for the structures.

The subject of this data set is murine model of PV. Also on record: method as in PMID 18394554. To be noted: 42 days of continuous treatment; cited from earlier work.

Take `Cc1cnc(Nc2ccc(OCCN3CCCC3)cc2)nc1Nc1cccc(S(=O)(=O)NC(C)(C)C)c1` [TG101348]: the Hematocrit reduction was 18%.
